One molecule from US20180228801A1, “Method for Enhancing Learning Ability and Memory of Patients with Alzheimer's Disease using Mocetinostat” (National Taiwan Normal University, priority 2017, published 2018) can be followed below.

Assay type in all cases: in vivo, mice (C57BL/6J)
Data set [1] relates to mice with oligomeric Aβ25-35 or saline injected into hippocampal CA1. The experiment in a line: Morris Water Maze memory test. Here is the method: (§1) Further, in some embodiments of the present invention, C57BL/6J strain male mice (12 week old) are used as a subject in need. After mice are allowed to adapt to the environment for 6 days, mice are anesthetized with Avertin (0.4 g/kg; purchased from Sigma). The mice are fixed on a stereotactic apparatus for operation, followed by injecting oligomeric Aβ25-35 (10 nM, 3 μL) into bilateral hippocampal CA1 (AP: […] relative to the bregma; ML: ±[…] relative to the midline; DV: […] relative to the skull) on day 7. MGCD0103 and equal volume of vehicle (saline) are intraperitoneal (i.p.) injected once a day from day 8, the day after said operation, for 29 days. On day 24, the Open Field Test is performed; on day 26, the EPM is performed; on day 28, the Y-maze is performed; on days 30 to 36, MWM is performed; and on day 37, mice are euthanized for pathological analysis.
MWM is a test for observing spatial learning and memory of mice by placing a platform in a wide pool. […] The behavior of finding the platform relates to a complex memory process within the brain, including 1) collecting the visual information (such as shape information of rectangles, circles and triangles) with respect to spatial positioning, and 2) processing, sorting, memorizing, fixing and recalling said information. In particular, the mice are placed in a pool filled with milky white non-toxic advertising pigment (used to make the water become opaque to hide the platform so that the mice may not know the position of the platform at the beginning), and are allowed to explore in search of the platform (which is fixed in a predetermined quadrant) underwater. The test is split into several phases as follows: 1) exploration phase: Place the mouse in the water and leave it there for 1 minute. If the mouse cannot find the platform in time, then move the mouse to the platform and leave there for 20 seconds. Then, place the mouse at a dry location and allow to rest until the next experiment; 2) acceptance phase: place the mouse into the water maze at four specific positions in turn in order to test whether the mouse can find the platform or not. Such training is repeated four times a day and continued for 4 days (each mouse is trained a total of 16 times). After 4 days of training, the learning ability of the mouse is measured in testing. After 24 hours of last testing trial, platform was removed and the mouse to freely swim in the pool and observe whether the mouse remembers the position of the platform or not (long-term spatial memory test). The swimming path is recorded by a CCD camera and analyzed with an image tracking system (EthoVision-XT).

In data set [2] the test system is mice with oligomeric Aβ25-35 injected into bilateral hippocampal CA1. Kind of data set: Elevated Plus Maze Test. The following applies: Aβ25-35 mice, high dose 0.5 mg/kg i.p. once a day. As for the experimental part: as §1
By means of observing the mice exploring an unfamiliar environment, and the contradictory and conflicting behavior caused by fear of the animal of highly hanging arms of the maze, the anxiety level of the animal can be determined. […] The total time spent at the open arms for each mouse was recorded by a video tracking system (EthoVision-XT, Noldus).

The test system of the next data set is activated microglia. Kind of data set: Immunohistochemical staining, activated microglia in hippocampus. The following applies: Aβ25-35 mice. As for the experimental part:
as §1
(§2) The inventor collects the brain tissue by perfusion followed by fixing and dehydrating, then, 30 μm frozen sections are obtained by a freezing microtome (CMS3050S, Leica). […] After that, avidin-biotin complex (ABC) is detected 1 hour after staining. […] After all sections have been stained, they are then fixed on a slide, dried, dehydrated, mounted, and photographed for quantity (performed by Image Pro Plus, Meida Cyberetics, USA).

Data set [3] has as its system acetylated tissue proteins H3. The experiment in a line: Western blot, acetylated H3. The following applies: chronic i.p. treatment, hippocampus. Here is the method: as §1
In data set [4] the test system is adrenergic neurons in locus coeruleus (LC). Kind of data set: Immunohistochemical staining, adrenergic neurons (TH). To be noted: saline-injected mice; Mean±SEM. Here is the method: as §1
The inventor collects the brain tissue by perfusion followed by fixing and dehydrating, then, 30 μm frozen sections are obtained by a freezing microtome (CMS3050S, Leica). […] After that, avidin-biotin complex (ABC) is detected 1 hour after staining. […] After all sections have been stained, they are then fixed on a slide, dried, dehydrated, mounted, and photographed for quantity (performed by Image Pro Plus, Meida Cyberetics, USA). […]

The test system of the next data set is synaptophysin. The experiment in a line: Western blot, synaptophysin. To be noted: Aβ25-35 mice, hippocampus. As for the experimental part:
as §1
(A western blot detects proteins with antibodies after separation by electrophoresis.)

In data set [5] the test system is Tau protein at the Ser-202 site. Kind of data set: Immunohistochemical staining, pS202Tau. To be noted: Aβ25-35 mice. Here is the method:
as §1, §2

Another data set deals with astrocytes. The experiment in a line: Immunohistochemical staining, astrocytes in hippocampus. The following applies: Aβ25-35 mice. As for the experimental part: as §1, §2
Another data set deals with pERK. Kind of data set: Western blot, pERK. The following applies: hippocampus. As for the experimental part: as §1
The subject of data set [6] is Aβ accumulation in hippocampal CA1. The experiment in a line: Immunohistochemical staining, Aβ accumulation (6E10). The following applies: Aβ25-35 mice. As for the experimental part: as §1, §2
Setting [7] is: saline-injected (normal) mice, high dose 0.5 mg/kg i.p.
Where [8] appears, read: saline-injected (normal) mice, low dose 0.01 mg/kg i.p.

Consider `Nc1ccccc1NC(=O)c1ccc(CNc2nccc(-c3cccnc3)n2)cc1` [MGCD0103, N-(2-Aminophenyl)-4-[[(4-pyridin-3-ylpyrimidin-2-yl)amino]methyl] benzamide], for which the “learning curve, time required to reach the platform over 4 training days” value in data set [1] (Aβ25-35 mice, high dose 0.5 mg/kg i.p.) is reported as “reduced time required to reach the platform”; in data set [1] (Aβ25-35 mice, low dose 0.01 mg/kg i.p.), “reduced time required to reach the platform”; in data set [1] (setting [7]), “does not significantly decrease”; in data set [1] (setting [8]) it was “does not significantly decrease”. In addition, the “time required to reach the platform, testing on day 5” value is reported as “significantly less” in [1] (Aβ25-35 mice, high dose 0.5 mg/kg i.p., vs Aβ25-35 alone); “significantly less” in [1] (Aβ25-35 mice, low dose 0.01 mg/kg i.p., vs Aβ25-35 alone); “significantly increased” in [1] (saline-injected (normal) mice treated with MGCD0103, dose not stated). The “time spent at the target quadrant after removing the platform (long-term memory)” value in data set [1] (Aβ25-35 mice, high dose 0.5 mg/kg i.p., vs Aβ25-35 group without treatment) is on record as “significantly increased”; in data set [1] (Aβ25-35 mice, low dose 0.01 mg/kg i.p., vs Aβ25-35 group without treatment), “significantly increased”; in data set [1] (setting [7]) it was “significantly decreased”; in data set [1] (setting [8]), “significantly decreased”. Besides, the swimming velocity entry in [1] (all groups, low and high dose, saline or Aβ25-35 mice) was “same velocity”. In addition, in data set [2], the “time spent in the open arm” value is listed as “significantly increased”. Moreover, in the data set on activated microglia, the “numbers of activated microglia” value is on record as “significantly decrease”. Also, in data set [3], the “acetylation level of tissue proteins H3” value is given as “significantly improve”. The “TH, numbers of adrenergic neurons” value in data set [4] is 44.58 ± 2.05. The expression of synaptophysin entry in the data set with synaptophysin was “significantly increased”. For the same molecule, the pS202Tau result in data set [5] (BLA region) and in data set [5] (hippocampal CA1) was “significantly decreased” in each case. Moreover, the numbers of astrocytes result with astrocytes is “significantly decrease”. Also, the “expression of pERK” value with pERK is recorded as “do not show difference”. Also, the “Aβ accumulation within the hippocampal CA1” value in data set [6] is “relieved”.
